Tests used:
[1] = tested on: CD44 shedding in IS-CD8+ cells; test: CD44 shedding in adherent IS-CD8+ cells, Western blotting; type: cell-based, NOD mouse
Protocol: Western Blotting—IS-CD8^+ cells were surface biotinylated for 1 h at 4° C. with 0.1 mg/ml sulfo-NHS-LC-biotin (Pierce, Rockford, Ill.). Following washes to remove biotin, cells were co-incubated for 2 h with MT1-MMP-CAT in serum-free, unsupplemented Click's medium. The cells were then lysed with 50 mM N-octyl-β-D-glucopyranoside in phosphate-buffered saline supplemented with 1 mM CaCl2, 1 mM MgCl2, and protease inhibitor mixture containing phenylmethylsulfonyl fluoride (1 mM) and aprotinin, pepstatin, and leupeptin (1 μg/ml each). Biotin-labeled CD44 was captured from the cell lysate and from the medium aliquots on streptavidin-agarose beads. The captured samples were examined by Western blotting with the CD44 (clone IM7.8.1) antibody to determine the released, soluble, CD44 ectodomain in the medium samples and the residual, membrane-anchored, cellular CD44 in the cell lysates.
Western blotting—IS-CD8^+ cells were surface biotinylated for 1 hr at 4° C. with 0.1 mg/ml of sulfo-NES-LC-biotin (Pierce). Following washes to remove biotin, the labeled cells were allowed to adhere in serum-free medium to plastic coated with 2% type I collagen/gelatin for 4 h or were kept in suspension. Under these experimental conditions, the vast majority of the cells became attached to gelatin. […] The cells were then lysed with 50 mM N-octyl-β-D-glucopyranoside in PBS supplemented with 1 mM CaCl2, 1 mM MgCl2, and protease inhibitor cocktail containing phenylmethylsulfonyl fluoride (1 mM) and aprotinin, pepstatin, and leupeptin (1 μg/ml each). Biotin-labeled CD44 was captured from the cell lysate and from the medium aliquots on streptavidine-Agarose beads. The captured samples were examined by Western blotting with the CD44 (clone IM7.8.1) antibody to determine the released, soluble, CD44 ectodomain in the medium samples and the residual, membrane-anchored, cellular CD44 in the cell lysates.

MT1-MMP = target: T1, MT1-MMP (Mus musculus, UniProt P53690); test: MT1-MMP-dependent MMP-2 activation in adherent IS-CD8+ cells, gelatin zymography; type: cell-based, NOD mouse; set-up: inhibition of MMP-2 activation: dose or concentration left out as unconfirmed
T1 construct: Endogenous MT1-MMP is latent in non-adherent IS-CD8^+ cells; endogenous in cells; host or cells: IS-CD8+ T cells (TGNFC8 clone, NOD mouse), adherent to gelatin
Protocol: MT1-MMP-dependent MMP-2 Activation and Gelatin Zymography—IS-CD8^+ cells (1×10^6) were either allowed to adhere for 4 h in serum-free unsupplemented Click's medium to plastic coated with 2% gelatin or kept in solution. Under these experimental conditions, the vast majority of cells became attached to gelatin. In 4 h, media samples (30 μl each) were withdrawn and analyzed by gelatin zymography (Deryugina, E. I., et al. (2001)) to identify the proteolytic activity and the activation status of MMP-2 naturally synthesized by IS-CD8^+ cells. Where indicated, cells were supplemented with external purified pro-MMP-2 (20 ng). Pro-MMP-2 was isolated from a conditioned medium of p2AHT2A72 cells derived from an HT1080 fibrosarcoma cell line sequentially transfected with the E1A and MMP-2 cDNAs (Strongin, A. Y., et al. (1995)).
MT1-MMP-dependent MMP-2 activation and gelatin zymography—IS-CD8^+ cells (1×10^6) were either allowed to adhere for 4 h in serum-free unsupplemented Click's medium to the plastic coated with 2% gelatin or kept in solution. In 18 h, media samples (30 μl each) were withdrawn and analyzed by gelatin zymography (Deryugina, E. I., et al. (2001)) to identify the proteolytic activity and the activation status of MMP-2 naturally synthesized by IS-CD8^+ cells. […] Pro-MMP-2 was isolated from a conditioned medium of p2AHT2A72 cells derived from an HT1080 fibrosarcoma cell line sequentially transfected with the E1A and MMP-2 cDNAs (Strongin, A. Y., et al. (1995)).

[2] = human TIMP proteins; cited from earlier work
MMP-9 = MMP-9 (Homo sapiens, UniProt P14780); details: preclinical studies; cited from earlier work
Sequence of MMP-9 (P14780 94-707, species assumed): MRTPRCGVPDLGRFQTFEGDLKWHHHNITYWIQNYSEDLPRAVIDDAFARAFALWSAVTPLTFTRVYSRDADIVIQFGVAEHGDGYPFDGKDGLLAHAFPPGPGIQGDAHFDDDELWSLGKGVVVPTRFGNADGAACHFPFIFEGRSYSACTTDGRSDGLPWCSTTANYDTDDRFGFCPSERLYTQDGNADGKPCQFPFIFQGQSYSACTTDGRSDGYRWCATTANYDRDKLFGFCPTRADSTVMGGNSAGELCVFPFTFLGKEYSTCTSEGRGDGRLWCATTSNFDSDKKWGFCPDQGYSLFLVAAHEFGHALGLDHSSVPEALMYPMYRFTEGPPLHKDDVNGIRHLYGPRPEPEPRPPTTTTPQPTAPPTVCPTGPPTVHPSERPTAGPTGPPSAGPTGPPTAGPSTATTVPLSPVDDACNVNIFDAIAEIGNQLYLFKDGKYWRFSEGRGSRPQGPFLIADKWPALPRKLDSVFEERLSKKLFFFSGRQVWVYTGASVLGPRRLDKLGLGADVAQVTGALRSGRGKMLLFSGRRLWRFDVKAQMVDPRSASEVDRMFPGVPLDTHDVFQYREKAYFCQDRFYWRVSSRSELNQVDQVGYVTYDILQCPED

MMP-2 = target: T2, MMP-2 (Homo sapiens, UniProt P08253); details: preclinical studies; cited from earlier work
T2 sequence (P08253 110-660): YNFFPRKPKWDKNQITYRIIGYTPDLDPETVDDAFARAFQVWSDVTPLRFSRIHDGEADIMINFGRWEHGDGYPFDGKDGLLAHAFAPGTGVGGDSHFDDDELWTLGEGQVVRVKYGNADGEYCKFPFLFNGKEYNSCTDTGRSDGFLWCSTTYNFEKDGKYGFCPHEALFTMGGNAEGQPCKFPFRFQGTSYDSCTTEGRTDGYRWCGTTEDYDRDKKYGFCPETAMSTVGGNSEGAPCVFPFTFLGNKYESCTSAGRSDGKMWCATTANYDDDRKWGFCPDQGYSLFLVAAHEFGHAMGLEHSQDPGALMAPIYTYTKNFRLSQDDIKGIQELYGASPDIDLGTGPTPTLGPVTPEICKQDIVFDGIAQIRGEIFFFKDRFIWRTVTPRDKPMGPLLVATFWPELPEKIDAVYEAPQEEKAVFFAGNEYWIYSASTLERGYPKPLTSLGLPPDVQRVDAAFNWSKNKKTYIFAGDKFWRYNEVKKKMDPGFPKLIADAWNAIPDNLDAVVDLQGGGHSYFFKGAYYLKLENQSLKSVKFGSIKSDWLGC

[3] = cited from earlier work
NOD mice = test: Adoptively transferred diabetes in NOD mice (IS-CD8+ cells); type: in vivo; details: Example 3: i.p. 30 min prior to cells, then every other day; inhibitor diluted to 4 mg/ml
Protocol: IS-CD8^+ cells were labeled with DiI and then injected in NOD mice. In 24 h, the labeled cells with their intra-islet location were counted in the cryostat sections of the entire pancreas. […] IS-CD8^+ cells were injected in NOD mice. […] PBS containing […] DMSO was used as a vehicle control. The onset of diabetes was monitored daily by measuring urine glucose levels with the Diastix reagent strips. Mice with urine glucose levels of ≧2000 mg/dl for 3 consecutive days were considered diabetic. * and **, p=0.02 and p=0.015 by Fisher's test, respectively.
Mice were monitored for 21 days. […] The onset of diabetes was identified by assessing urine glucose levels with Diastix® strips (Bayer). Mice with urine glucose levels of >2000 mg/dl for 3 consecutive days were considered diabetic. […] The level of glucose in the urine closely follows that in the blood (Traisman, H. S., and Greenwood, R. D. (1973)). The measurement of glucose in urine is a widely accepted method to follow the development of diabetes in NOD mice (Pomerleau, D. P., et al. (2005)).

IS-CD8+ T cells = test: Homing of DiI-labeled IS-CD8+ T cells into the pancreatic islets of NOD mice; type: in vivo; details: Example 3: inhibitor i.p. before cells; 24 h; SB-3CT and EGCG at much higher concentrations than AG3340
Protocol: Fluorescent Tracing and Morphometric Analysis—For trafficking studies, IS-CD8^+ T cells were incubated at 1×10^7 cells/ml for 30 min at 37° C. in the dark in complete Click's medium containing 5% fetal calf serum and 0.0075 mg/ml of the fluorescent dye 1,1′-didodecyl-3,3,3′,3′-tetramethylindocarbocyanine perchlorate (DiI; Molecular Probes, Eugene, Oreg.). After incubation, the cells were washed three times with phosphatebuffered saline to remove excess DiI. Labeled IS-CD8^+ cells (1×10^7 cells) were injected intravenously in 0.2 ml of phosphate-buffered saline into irradiated (725 rads, 24 h in advance) NOD mice. Mice were sacrificed 24 h after injection of DiI-labeled cells. The spleen and the pancreata were excised and fixed in 0.1 M periodate-lysine-paraformaldehyde phosphate buffer. The organs were next sucrose-saturated, freeze-molded in OCT compound (Sakura Finetek Inc., Torrance, Calif.), and freeze-sectioned. 7-μm-thick cryostat sections of the entire pancreas were prepared at 60-μm intervals using a Leica CM1900 cryotom. Distribution of DiI-labeled CD8^+ cells within the islets was examined using a fluorescent microscope. At least 100 individual islets per mouse (4-5 mice/experimental group) were examined. The characteristic morphology of the islets is easily identified on the cryosections. DiI-labeled cells were counted within the area relevant to each individual islet (see FIG. 3 for a representative image; the islet-relevant area is depicted by the solid white line, and the islet boundaries are shown by the white dotted line). The position of each IS-CD8^+ labeled cell was determined relative to the islet boundary. The labeled cells localized within the islet boundary were considered to be “inside,” whereas the labeled cells adjacent to the islet but outside of the islet boundary were considered to be “at the entrance.” This method has been described in substantial detail (Savinov, A. Y., et al. (2003), and Savinov, A. Y., et al. (2001), which are herein incorporated by reference in their entirety for their teaching of these methods).
Fluorescent tracing and morphometric analysis—For trafficking studies, IS-CD8^+ T cells were incubated at 1×10^7 cells/ml for 30 min at 37° C. in the dark in the complete Click's medium containing 5% FCS and 0.0075 mg/ml of fluorescent dye 1,1′-didodecyl-3,3,3′,3′-tetramethylindocarbocyanine perchlorate (DiI; Molecular Probes). After incubation, the cells were washed three times with PBS to remove excess DiI. Labeled IS-CD8^+ cells (1×10^7 cells) were intravenously injected in 0.2 ml of PBS into irradiated (725 Rad, 24 h in advance) NOD mice. Mice were sacrificed 24 h after injection of DiI-labeled cells. […] In 24 h, the spleen and the pancreata were excised and fixed in 0.1 M periodate-lysine-paraformaldehyde phosphate buffer. The organs were next sucrose-saturated, freeze-molded in OCT compound (Sakura Finetek Inc.) and freeze-sectioned. 7-μm-thick cryostat sections of the entire pancreas were prepared at the 60 μm intervals using a Leica CM1900 cryotom. Distribution of DiI-labeled CD8^+ cells within the islets was examined using a fluorescent microscope. At least 100 individual islets per mouse, 4-5 mice per each experimental group, were examined. The characteristic morphology of the islets is easily identified on the cryosections. DiI-labeled cells were counted within the area relevant to each individual islet. The position of each IS-CD8^+ labeled cell was determined relative to the islet boundary. […]

Molecule: TIMP-1: native tissue inhibitor of MMP; a poor inhibitor of MT1-MMP
- shedding of CD44 in adherent cells ([1]; Example 2: AG3340 50 μM, TIMP-1 and TIMP-2 100 ng/ml): minor but noticeable inhibition
- activation of MMP-2 in adherent cells (MT1-MMP; Example 2: AG3340 50 μM, TIMP-1 and TIMP-2 100 ng/ml, 18 h): no effect
- isoelectric point [2]: 8.00

Molecule: CNC(=O)[C@@H](NC(=O)[C@H](CC(C)C)NC(=O)[C@@H](S)CCN1C(=O)N(C)C(C)(C)C1=O)C(C)(C)C [BMS-275291]
- inhibitory activity against MMP-9 (MMP-9): potent inhibitory activity
- inhibitory activity against MMP-2 (MMP-2): potent inhibitory activity

Molecule: COc1ccc(S(=O)(=O)N(Cc2cccnc2)[C@@H](C(=O)NO)C(C)C)cc1 [CGS-27023A]
- plasma concentrations relative to in vitro IC50s for MMP-2,-3 and -9 ([3]; clinically tolerable doses): severalfold greater
- time for which plasma concentrations above the in vitro IC50s for MMP-2,-3 and -9 were sustained after dosing ([3]; clinically tolerable doses): > 10 h
- dose at which major toxic effects (cutaneous and musculoskeletal toxicity) were encountered ([3]; oral, continuous dosing, 150 to 600 mg in divided doses): exceeding 300 mg twice a day

Molecule: O=S(=O)(CC1CS1)c1ccc(Oc2ccccc2)cc1 (stereo not drawn) [SB-3CT]
- delay of the transferred diabetes onset (NOD mice): no delay
- shedding of CD44 in adherent cells ([1]; Example 3): no effect
- homing of IS-CD8+ cells inside the islets (IS-CD8+ T cells): did not affect
- activation of MMP-2 in adherent cells (MT1-MMP; Example 3: inhibitors added for 18 h): no effect

Molecule: O=C(O[C@@H]1Cc2c(O)cc(O)cc2O[C@@H]1c1cc(O)c(O)c(O)c1)c1cc(O)c(O)c(O)c1 [EGCG, (−)-epigallocatechin 3-gallate]
- delay of the transferred diabetes onset (NOD mice): no delay
- effect on CD44 proteolysis ([1]; Example 3: EGCG 500 mM): without any significant effect
- homing of IS-CD8+ cells inside the islets (IS-CD8+ T cells): did not affect
- inhibition of MMP-2 activation (MT1-MMP; Example 3: EGCG): partial inhibition

B1: TIMP-3: native tissue inhibitor of MMP, SEQ ID NO:4 (protein)
chain: MTPWLGLIVLLGSWSLGDWGAEACTCSPSHPQDAFCNSDIVIRAKVVGKKLVKEGPFGTLVYTIKQMKMYRGFTKMPHVQYIHTEASESLCGLKLEVNKYQYLLTGRVYDGKMYTGLCNFVERWDQLTLSQRKGLNYRYHLGCNCKIKSCYYLPCFVTSKNECLWTDMLSNFGYPGYQSKHYACIRQKGGYCSWYRGWAPPDKSIINATDP
- isoelectric point [2]: 9.04

B2: TIMP-4: native tissue inhibitor of MMP, 22 kDa, SEQ ID NO:6 (protein, UniProt Q99727 30-224, looked up)
Metalloproteinase inhibitor 4: CSCAPAHPQQHICHSALVIRAKISSEKVVPASADPADTEKMLRYEIKQIKMFKGFEKVKDVQYIYTPFDSSLCGVKLEANSQKQYLLTGQVLSDGKVFIHLCNYIEPWEDLSLVQRESLNHHYHLNCGCQITTCYTVPCTISAPNECLWTDWLLERKLYGYQAQHYVCMKHVDGTCSWYRGHLPLRKEFVDIVQP
- isoelectric point [2]: 7.34
